Data from ChEMBL document CHEMBL1201862, “PubChem BioAssay data set” (2004).
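Grown in 96-well plates, cells were treated for 48 hours with each compound at five concentrations. Insufficient inhibition: endpoint recorded as highest concentration tested. GI50: concentration for 50% inhibition of growth.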 Active and inactive are the calls of the source. Rule as the data show it: active = GI50 up to about 1.1 µM and inactive = higher.

Key:
Experiment in all cases: NCI tumour cell line growth inhibition, 48 h
NCI-H460 = tested on: NCI-H460
KM12 = tested on: KM12
CAKI-1 = tested on: CAKI-1
SF-268 = tested on: SF-268
SF-295 = tested on: SF-295
SK-MEL-28 = tested on: SK-MEL-28
HCT-116 = tested on: HCT-116
NCI-H522 = tested on: NCI-H522
RXF 393 = tested on: RXF 393
DU-145 = tested on: DU-145
HT-29 = tested on: HT-29
LOX IMVI = tested on: LOX IMVI
UACC-257 = tested on: UACC-257
MDA-MB-231 = tested on: MDA-MB-231
ACHN = tested on: ACHN
U-251 = tested on: U-251
PC-3 = tested on: PC-3
A549 = tested on: A549
UO-31 = tested on: UO-31
MOLT-4 = tested on: MOLT-4
M14 = tested on: M14
HCC 2998 = tested on: HCC 2998
A498 = tested on: A498
SW-620 = tested on: SW-620
HOP-92 = tested on: HOP-92
IGROV-1 = tested on: IGROV-1
K562 = tested on: K562
EKVX = tested on: EKVX
COLO 205 = tested on: COLO 205
HOP-62 = tested on: HOP-62
CCRF-CEM = tested on: CCRF-CEM
MDA-N = tested on: MDA-N
OVCAR-3 = tested on: OVCAR-3
NCI-H23 = tested on: NCI-H23
SF-539 = tested on: SF-539
SN12C = tested on: SN12C
HCT-15 = tested on: HCT-15
OVCAR-5 = tested on: OVCAR-5
RPMI-8226 = tested on: RPMI-8226
SR = tested on: SR
786-0 = tested on: 786-0
SK-MEL-5 = tested on: SK-MEL-5
Hs-578T = tested on: Hs-578T
MDA-MB-435 = tested on: MDA-MB-435
UACC-62 = tested on: UACC-62
TK-10 = tested on: TK-10
SNB-19 = tested on: SNB-19
T47D = tested on: T47D
SK-MEL-2 = tested on: SK-MEL-2
OVCAR-4 = tested on: OVCAR-4
MCF7 = tested on: MCF7
NCI-H226 = tested on: NCI-H226
BT-549 = tested on: BT-549
HL-60 = tested on: HL-60
NCI/ADR-RES = tested on: NCI/ADR-RES
OVCAR-8 = tested on: OVCAR-8

SMILES: CN(C)c1ccc2c3c(c(=O)oc2c1)CCC3
- GI50 (NCI-H460): 83.9 µM (inactive)
- GI50 (KM12): 41.7 µM (inactive)
- GI50 (CAKI-1): 43.8 µM (inactive)
- GI50 (SF-268): 34.8 µM (inactive)
- GI50 (SF-295): 92.7 µM (inactive)
- GI50 (SK-MEL-28): > 100 µM (inactive)
- GI50 (HCT-116): 60.8 µM (inactive)
- GI50 (NCI-H522): 26.7 µM (inactive)
- GI50 (RXF 393): 64 µM (inactive)
- GI50 (DU-145): 80.4 µM (inactive)
- GI50 (HT-29): 44.8 µM (inactive)
- GI50 (LOX IMVI): 40.6 µM (inactive)
- GI50 (UACC-257): 82.8 µM (inactive)
- GI50 (MDA-MB-231): 28.7 µM (inactive)
- GI50 (ACHN): 58.5 µM (inactive)
- GI50 (U-251): 88.3 µM (inactive)
- GI50 (PC-3): 90.4 µM (inactive)
- GI50 (A549): 51.3 µM (inactive)
- GI50 (UO-31): > 100 µM (inactive)
- GI50 (MOLT-4): 27.2 µM (inactive)
- GI50 (M14): 92.3 µM (inactive)
- GI50 (HCC 2998): 54.7 µM (inactive)
- GI50 (A498): 29.4 µM (inactive)
- GI50 (SW-620): > 100 µM (inactive)
- GI50 (HOP-92): 38.7 µM (inactive)
- GI50 (IGROV-1): 84.1 µM (inactive)
- GI50 (K562): 69.3 µM (inactive)
- GI50 (EKVX): 9.14 µM (inactive)
- GI50 (COLO 205): 33.1 µM (inactive)
- GI50 (HOP-62): 44 µM (inactive)
- GI50 (CCRF-CEM): 75 µM (inactive)
- GI50 (MDA-N): 97.9 µM (inactive)
- GI50 (OVCAR-3): > 100 µM (inactive)
- GI50 (NCI-H23): 74 µM (inactive)
- GI50 (SF-539): > 100 µM (inactive)
- GI50 (SN12C): > 100 µM (inactive)
- GI50 (HCT-15): 50.7 µM
- GI50 (OVCAR-5): > 100 µM (inactive)
- GI50 (RPMI-8226): 37.6 µM (inactive)
- GI50 (SR): 42.6 µM (inactive)
- GI50 (786-0): 58.6 µM (inactive)
- GI50 (SK-MEL-5): 36.8 µM (inactive)
- GI50 (Hs-578T): 36.8 µM (inactive)
- GI50 (MDA-MB-435): 57.9 µM (inactive)
- GI50 (UACC-62): 29.4 µM (inactive)
- GI50 (TK-10): 65.3 µM (inactive)
- GI50 (SNB-19): > 100 µM (inactive)
- GI50 (T47D): 36.1 µM (inactive)
- GI50 (SK-MEL-2): > 100 µM (inactive)
- GI50 (OVCAR-4): > 100 µM (inactive)
- GI50 (MCF7): 28.2 µM (inactive)
- GI50 (NCI-H226): 85.5 µM (inactive)
- GI50 (BT-549): > 100 µM (inactive)
- GI50 (HL-60): 26.9 µM (inactive)
- GI50 (NCI/ADR-RES): 65.8 µM (inactive)
- GI50 (OVCAR-8): 64.4 µM (inactive)
